The results in this text go back to patent US20240043435A1, “TYK-2 INHIBITOR” (BEIGENE, LTD., priority 2020, published 2024).

In assay [1] the target is T1, TYK2-JH2 (aa 575-869, in-house) protein (Homo sapiens, UniProt P29597).
T1 construct: TYK2-JH2 (aa 575-869, in-house) protein; made in house
In words: TYK2-JH2 biochemical assay (HTRF probe displacement). Conditions: Biochemical assay; read-out: TYK2-JH2 IC50. In kind it is binding. On the procedure:
Assay A: TYK2-JH2 Biochemical Assay
Compounds disclosed herein were tested for blocking of TYK2-JH2 (aa 575-869, in-house) protein with its probe in an assay based on Homogeneous Time Resolved Fluorescence. Compound dilution is done according to the following protocol: (1) Prepare 500× compounds solution in DMSO from 500 uM by 5-fold dilution, total 10 doses were included; (2) Prepare 10× compounds solution in an assay buffer containing 20 mM HEPES, pH 7.5, 10 mM MgCl2, 0.005% BSA, 2 mM DTT, 0.015% Brij-35 by transferring 1 μl serial 500× stock solution into 49 μl assay buffer. […] of 0.2 nM recombinant TYK2-JH2 protein was pre-incubated with 1 μl of 10× serial dilution of compounds at room temperature for 0.5 hour. […] The HTRF signals (ex337 nm, em620 nm/665 nm) were read on BMG PHERAstar FS instrument. The inhibition percentage of TYK2 interaction with its probe in presence of increasing concentrations of compounds was calculated based on the ratio of fluorescence at 615 nm to that at 665 nm. The IC50 for each compound was derived from fitting the data to the four-parameter logistic equation by Dotmatics.

Assay [2] has as its system JAK2, TYK2/p-STAT4 (Tyr693) activated by IL-12 in NK-92 cell line. Kind of assay: IL-12-JAK2, TYK2/p-STAT4 (Tyr693) inhibition IC50 cellular assay. The assay is classed as cell-based. Conditions: for IC50: NK92, Cellular assay, read-out: pSTAT4/IL-12 IC50. An excerpt: Assay C: IL-12-JAK2, TYK2/p-STAT4 (Tyr693) Inhibition IC50 Cellular Assay
To evaluate the inhibition effect of compounds disclosed herein on JAK2, TYK2/p-STAT4 (Tyr693) activated by IL-12 in NK-92 cell line, NK-92 cells were collected and washed 3 times by DPBS and resuspended in MEM-α (GIBCO, Cat #12561056) with 10% FBS (Gibco, Cat #10099, Lot #1891605), without IL-2 (R&D systems, Cat #202-IL), starved overnight. Cells were collected and resuspended in 1640 medium (phenol red free, Gibco, Cat #11835-030) with 0.1% BSA, and 12.5 μl/5×10^4/well cell suspension were seeded to the 96-well plate (Corning, Cat #3799). Then cells were treated with compounds diluted in 0.2% DMSO 1640 medium, at 37° C., 1 h. Dilution is done according to the following protocol: (1) make 500× compounds solution in DMSO from 5 mM by 4-fold dilution, total 8 doses were included; (3) make 2× compounds solution in assay medium by transferring 0.5 μl serial 500× stock solution into 125 μl assay medium; (4) 15 μl of 2× serial solution is added to cells and incubate at 37° C. for 1 h, the final compound conc. is 10000, 2500, 625, 156.25, 39, 9.8, 2.4 and 0.61 nM, respectively. After 1 h, cells were treated with 2.5 μl medium containing IL-12 at 37° C. (R&D systems, Cat #219-IL-005, final conc. 40 ng/ml), 30 min. Following cells were lysed with 7.5 μl lysis buffer at RT, shaking on shaker for 1 h. 10 μL of cell lysate were transferred to a PE 384-well Proxiplate detection plate, and 5 μL of pre-mixed Alphascreen beads were added to each well. Covered the plate with a plate sealer, span 1000 rpm for 1 min, mix, Incubated overnight at room temperature. Read on BMG PheraStar with Alphascreen protocol. IC 50 values were calculated by fitting dependent data to the four-parameter logistic model using dotmatics software. The assay was performed by using AlphaLISA SureFire Ultra p-STAT4 (Tyr693) Assay Kit—High Volume (PE, Cat #ALSU-PST4-A-HV).

The next assay relates to pSTAT5/GM-CSF. In words: pSTAT5/GM-CSF cellular assay (JAK2 selectivity). The assay is classed as cell-based. Conditions: for Selectivity fold (TYK2/JAK2): pSTAT5/GM-CSF IC50 over pSTAT4/IL-12 IC50.

SMILES strings stand for the structures.

T1 sequence (P29597 575-869): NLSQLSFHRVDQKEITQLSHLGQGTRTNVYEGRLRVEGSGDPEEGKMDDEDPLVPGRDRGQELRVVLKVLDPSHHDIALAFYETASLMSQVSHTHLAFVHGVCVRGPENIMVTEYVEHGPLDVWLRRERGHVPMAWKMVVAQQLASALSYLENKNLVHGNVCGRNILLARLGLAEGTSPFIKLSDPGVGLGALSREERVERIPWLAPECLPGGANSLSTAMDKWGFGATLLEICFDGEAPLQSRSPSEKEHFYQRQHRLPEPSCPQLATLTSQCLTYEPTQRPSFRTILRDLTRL

With `CC(=O)Nc1cc(Nc2cc(N3CC(C)(O)C3)cc(S(C)(=O)=O)n2)c(-c2ccc3c(n2)OCC(C)(C)O3)cn1` [Example Q56, N-(5-(2,2-dimethyl-2,3-dihydro-[1,4]dioxino[2,3-b]pyridin-6-yl)-4-((4-(3-hydroxy-3-methylazetidin-1-yl)-6-(methylsulfonyl)pyridin-2-yl)amino)pyrid-in-2-yl)acetamide], the IC50 in assay [1] came to 0.031 nM. `CC(=O)Nc1cc(Nc2cccc(S(C)(=O)=O)c2)c(-c2ccc(N3CCOCC3)cn2)cn1` [Example B11, N-(4′-((3-(methylsulfonyl)phenyl)amino)-5-morpholino-[2,3′-bipyridin]-6′-yl)acetamide]: in assay [1], the IC50 came out at 0.019 nM.

Consider `CC(=O)Nc1cc(Nc2cc(O[C@H]3C[C@H](O)C3)cc(S(C)(=O)=O)c2)c(-c2ccc(F)cn2)cn1` [Example F15, N-(5-fluoro-4′-((3-((trans)-3-hydroxycyclobutoxy)-5-(methylsulfonyl)phenyl)amino)-[2,3′-bipyridin]-6′-yl)acetamide], for which the IC50 in assay [1] worked out at 0.073 nM. On to `CC(=O)Nc1cc(Nc2cc(C)cc(S(C)(=O)=O)c2)c(-c2ccc(C(F)(F)F)cn2)cn1` [Example F3, N-(4′-((3-methyl-5-(methylsulfonyl)phenyl)amino)-5-(trifluoromethyl)-[2,3′-bipyridin]-6′-yl)acetamide], for which, in assay [1], the IC50 turned out to be 0.068 nM. Still for that read-out and setting: in the case of `CC(=O)Nc1cc(Nc2cccc(S(C)(=O)=O)n2)c(-c2cnn(C)c2)cn1` [Example A8, N-(5-(1-methyl-1H-pyrazol-4-yl)-4-((6-(methylsulfonyl)pyridin-2-yl)amino)pyridin-2-yl)acetamide] it was 0.26 nM.

For the molecule `CC(=O)Nc1cc(Nc2cccc(S(C)(=O)=O)c2)c(-c2cc(C(C)(C)O)ccn2)cn1` [Example B9, N-(4-(2-hydroxypropan-2-yl)-4′-((3-(methylsulfonyl)phenyl)amino)-[2,3′-bipyridin]-6′-yl)acetamide], the IC50 in assay [1] was 0.53 nM. With `CC(=O)Nc1cc(Nc2nc(S(C)(=O)=O)ccc2OC(C)C)c(-c2ccn(C)n2)cn1` [Example J49, N-(4-((3-isopropoxy-6-(methylsulfonyl)pyridin-2-yl)amino)-5-(1-methyl-1H-pyrazol-3-yl)pyridin-2-yl)acetamide], the IC50 in assay [1] came out at 0.13 nM. For `CC(=O)Nc1cc(Nc2nc(S(C)(=O)=O)ccc2C2CCOCC2)c(-c2ccc3c(n2)OCC(C)(C)O3)cn1` [Example Q90, N-(5-(2,2-dimethyl-2,3-dihydro-[1,4]dioxino[2,3-b]pyridin-6-yl)-4-((6-(methylsulfonyl)-3-(tetrahydro-2H-pyran-4-yl)pyridin-2-yl)amino)pyridin-2-yl)acetamide], in assay [2], the IC50 turned out to be 44 nM. In the assay on pSTAT5/GM-CSF, the IC50 is greater than 10 µM and the “Selectivity fold (TYK2/JAK2)” value was greater than 227 fold. For `CC(=O)Nc1cc(Nc2cc(N3CCC4(CC4)C3)cc(S(C)(=O)=O)n2)c(-c2ccc3c(n2)OCC(C)(C)O3)cn1` [Example Q97, N-(5-(2,2-dimethyl-2,3-dihydro-[1,4]dioxino[2,3-b]pyridin-6-yl)-4-((6-(methylsulfonyl)-4-(5-azaspiro[2.4]heptan-5-yl)pyridin-2-yl)amino)pyridin-2-yl)acetamide] the same measures were 3.29 nM, greater than 10 µM and greater than 3039 fold. Regarding `CC(=O)Nc1cc(Nc2cc(C)cc(S(C)(=O)=O)n2)c(-c2ccn(CC(=O)N3CCOCC3)n2)cn1` [Example A13, N-(4-((4-methyl-6-(methylsulfonyl)pyridin-2-yl)amino)-5-(1-(2-morpholino-2-oxoethyl)-1H-pyrazol-3-yl)pyridin-2-yl)acetamide], the IC50 in assay [1] worked out at 0.08 nM.

As for `COC(C)c1cc(Nc2cc(NC(C)=O)ncc2-c2ccc(N3C[C@@H](C)O[C@@H](C)C3)cn2)nc(S(C)(=O)=O)c1` (single isomer, unassigned) [Example C19, N-(5-((cis)-2,6-dimethylmorpholino)-4′-((4-((R or S)-1-methoxyethyl)-6-(methylsulfonyl)pyridin-2-yl)amino)-[2,3′-bipyridin]-6′-yl)acetamide], the IC50 in assay [1] stood at 0.023 nM. `CC(=O)Nc1cc(Nc2ccc(C3CCOCC3)c(S(C)(=O)=O)n2)c(-c2ccc3c(n2)OCC(C)(C)O3)cn1` [Example Q79, N-(5-(2,2-dimethyl-2,3-dihydro-[1,4]dioxino[2,3-b]pyridin-6-yl)-4-((6-(methylsulfonyl)-5-(tetrahydro-2H-pyran-4-yl)pyridin-2-yl)amino)pyridin-2-yl)acetamide]: the IC50 in assay [1] stood at 0.32 nM.

Regarding `CC(=O)Nc1cc(Nc2cc(C3CCN(CC(F)(F)F)CC3)cc(S(C)(=O)=O)n2)c(-c2ccc3c(n2)OCC(C)(C)O3)cn1` [Example Q60, N-(5-(2,2-dimethyl-2,3-dihydro-[1,4]dioxino[2,3-b]pyridin-6-yl)-4-((6-(methylsulfonyl)-4-(1-(2,2,2-trifluoroethyl)piperidin-4-yl)pyridin-2-yl)amino)pyridin-2-yl) acetamide], the IC50 in assay [1] amounted to 0.059 nM. The same measure, in the same setting: then `CC(=O)Nc1cc(Nc2cc(OCC3CC3)cc(S(C)(=O)=O)c2)c(-c2ccc(C(F)(F)F)cn2)cn1` [Example F6, N-(4′-((3-(cyclopropylmethoxy)-5-(methylsulfonyl)phenyl)amino)-5-(trifluoromethyl)-[2,3′-bipyridin]-6′-yl)acetamide], with 0.532 nM; and `CC(=O)Nc1cc(Nc2cccc(S(C)(=O)=O)n2)c(-c2cccnc2)cn1` [Example B2, N-(4-((6-(methylsulfonyl)pyridin-2-yl)amino)-[3,3′-bipyridin]-6-yl)acetamide], with 5.8 nM; and `CCOc1cc(Nc2cc(NC(C)=O)ncc2-c2ccc(C(F)(F)F)cn2)nc(S(C)(=O)=O)c1` [Example F10, N-(4′-((4-ethoxy-6-(methylsulfonyl)pyridin-2-yl)amino)-5-(trifluoromethyl)-[2,3′-bipyridin]-6′-yl)acetamide], with 0.04 nM.

For `CC(=O)Nc1cc(Nc2cc(-c3nccnc3C)cc(S(C)(=O)=O)n2)c(-c2ccc3c(n2)OCC(C)(C)O3)cn1` [Example Q110, N-(5-(2,2-dimethyl-2,3-dihydro-[1,4]dioxino[2,3-b]pyridin-6-yl)-4-((4-(3-methylpyrazin-2-yl)-6-(methylsulfonyl)pyridin-2-yl)amino)pyridin-2-yl)acetamide], the IC50 in assay [2] turned out to be 1.08 nM. In the assay on pSTAT5/GM-CSF, the IC50 is greater than 10 µM and the “Selectivity fold (TYK2/JAK2)” value is listed as greater than 9259 fold. The matching figures for `CC(=O)Nc1cc(Nc2cc(-c3ccc(C#N)nc3)cc(S(C)(=O)=O)n2)c(-c2ccc3c(n2)OCC(C)(C)O3)cn1` [Example Q108, N-(4-((6-cyano-6′-(methylsulfonyl)-[3,4′-bipyridin]-2′-yl)amino)-5-(2,2-dimethyl-2,3-dihydro-[1,4]dioxino[2,3-b]pyridin-6-yl)pyridin-2-yl)acetamide]: 1.18 nM, greater than 10 µM and greater than 8474 fold. Take `COCCOc1cc(Nc2cc(NC(C)=O)ncc2-c2ccccn2)nc(S(C)(=O)=O)c1` [Example B6, N-(4′-((4-(2-methoxyethoxy)-6-(methylsulfonyl)pyridin-2-yl)amino)-[2,3′-bipyridin]-6′-yl)acetamide]: in assay [2] (Cellular assay, pSTAT5/GM-CSF IC50 vs pSTAT4/IL-12 IC50), the “Selectivity fold (TYK2/JAK2)” value is listed as greater than 8264 fold. Besides, the IC50 was 1.21 nM in assay [2] and greater than 10 µM with pSTAT5/GM-CSF.
